Measurements: ChEMBL document CHEMBL1146065, “Structure-based optimization of azole antifungal agents by CoMFA, CoMSIA, and molecular docking” (2006)
≈ marks a conversion by molar mass, not a printed value.

Experiments:
Candida parapsilosis = assay: Antifungal activity against Candida parapsilosis; format: functional; details: Lodderomyces parapsilosis
Candida tropicalis = assay: Antifungal activity against Candida tropicalis; format: functional
Epidermophyton floccosum = assay: Antifungal activity against Epidermophyton floccosum; format: functional
Sporothrix schenckii = assay: Antifungal activity against Sporothrix schenckii; format: functional
Microsporum = assay: Antifungal activity against Microsporum lanosum; format: functional
Nannizzia gypsea = assay: Antifungal activity against Microsporum gypseum; format: functional
Trichophyton benhamiae = assay: Antifungal activity against Trichophyton mentagrophytes; format: functional, Arthroderma benhamiae
Fonsecaea pedrosoi = assay: Antifungal activity against Fonsecaea pedrosoi; format: functional
Cryptococcus neoformans = assay: Antifungal activity against Cryptococcus neoformans; format: functional
Aspergillus fumigatus = assay: Antifungal activity against Aspergillus fumigatus; format: functional
Candida albicans = assay: Antifungal activity against Candida albicans; format: functional
Trichophyton rubrum = assay: Antifungal activity against Trichophyton rubrum; format: functional
Trichophyton violaceum = assay: Antifungal activity against Trichophyton violaceum; format: functional

Compound	MIC80 (Candida parapsilosis) [µg/mL]	MIC80 (Candida tropicalis) [µg/mL]	MIC80 (Epidermophyton floccosum) [µg/mL]	MIC80 (Sporothrix schenckii) [µg/mL]	MIC80 (Microsporum) [µg/mL]	MIC80 (Nannizzia gypsea) [µg/mL]	MIC80 (Trichophyton benhamiae) [µg/mL]	MIC80 (Fonsecaea pedrosoi) [µg/mL]	MIC80 (Cryptococcus neoformans) [µg/mL]	MIC80 (Aspergillus fumigatus) [µg/mL]	MIC80 (Candida albicans) [µg/mL]	MIC80 (Trichophyton rubrum) [µg/mL]	MIC80 (Trichophyton violaceum) [µg/mL]
CN(Cc1ccccc1Cl)CC(O)(Cn1cncn1)c1ccc(F)cc1F (configuration not stated)	0.25 (≈ 0.636 µM)	≤ 0.125	< 0.0625	32 (≈ 81.5 µM)	0.25 (≈ 0.636 µM)	4 (≈ 10.2 µM)	< 0.0625	0.25 (≈ 0.636 µM)	≤ 0.125	8 (≈ 20.4 µM)	0.032 (≈ 0.0815 µM)	≤ 0.125	0.5 (≈ 1.27 µM)
CN(Cc1cc(F)ccc1Br)CC(O)(Cn1cncn1)c1ccc(F)cc1F (configuration not stated)	≤ 0.125	≤ 0.125	< 0.0625	64 (≈ 141 µM)	8 (≈ 17.6 µM)	32 (≈ 70.3 µM)	0.5 (≈ 1.1 µM)	2 (≈ 4.39 µM)	≤ 0.125	4 (≈ 8.79 µM)	0.032 (≈ 0.0703 µM)	0.5 (≈ 1.1 µM)	4 (≈ 8.79 µM)
Cc1cccc(C(=O)Nc2ccc(CN(C)CC(O)(Cn3cncn3)c3ccc(F)cc3F)cc2)c1 (configuration not stated)	0.0625 (≈ 0.127 µM)	1 (≈ 2.03 µM)			0.25 (≈ 0.509 µM)			0.5 (≈ 1.02 µM)	1 (≈ 2.03 µM)	16 (≈ 32.6 µM)	0.031 (≈ 0.0631 µM)	≤ 0.125	
CN(Cc1ccc(NC(=O)c2ccc(Cl)cc2Cl)cc1)CC(O)(Cn1cncn1)c1ccc(F)cc1F (configuration not stated)	0.125 (≈ 0.229 µM)	0.5 (≈ 0.915 µM)			0.5 (≈ 0.915 µM)			≤ 0.125	0.0625 (≈ 0.114 µM)	16 (≈ 29.3 µM)	0.016 (≈ 0.0293 µM)	0.5 (≈ 0.915 µM)	
CN(Cc1ccc(I)cc1)CC(O)(Cn1cncn1)c1ccc(F)cc1F (configuration not stated)	0.25 (≈ 0.516 µM)	≤ 0.125	< 0.0625	16 (≈ 33 µM)	< 0.0625	< 0.0625	< 0.0625	≤ 0.125	≤ 0.125	≤ 0.125	0.032 (≈ 0.0661 µM)	≤ 0.125	< 0.0625
CN(Cc1cccc(I)c1)CC(O)(Cn1cncn1)c1ccc(F)cc1F (configuration not stated)	1 (≈ 2.06 µM)	≤ 0.125	< 0.0625	64 (≈ 132 µM)	< 0.0625	0.125 (≈ 0.258 µM)	< 0.0625	≤ 0.125	≤ 0.125	8 (≈ 16.5 µM)	1 (≈ 2.06 µM)	≤ 0.125	< 0.0625
OC(Cn1cncn1)(Cn1cncn1)c1ccc(F)cc1F [FLUCONAZOLE]	0.5 (≈ 1.63 µM)	0.5 (≈ 1.63 µM)	> 32	> 64	> 32	8 (≈ 26.1 µM)	> 32	64 (≈ 209 µM)	16 (≈ 52.2 µM)	32 (≈ 104 µM)	0.25 (≈ 0.816 µM)	8 (≈ 26.1 µM)	32 (≈ 104 µM)
CC(=O)N1CCN(c2ccc(OCC3COC(Cn4ccnc4)(c4ccc(Cl)cc4Cl)O3)cc2)CC1 (configuration not stated) [KETOCONAZOLE]	≤ 0.125	≤ 0.125	< 0.0625	0.5 (≈ 0.941 µM)	< 0.0625	< 0.0625	< 0.0625	≤ 0.125	≤ 0.125	1 (≈ 1.88 µM)	0.0625 (≈ 0.118 µM)	≤ 0.125	0.25 (≈ 0.47 µM)
CN(C/C=C/C#CC(C)(C)C)Cc1cccc2ccccc12 [TERBINAFINE]	16 (≈ 54.9 µM)	16 (≈ 54.9 µM)	> 32	2 (≈ 6.86 µM)	32 (≈ 110 µM)	0.5 (≈ 1.72 µM)	> 32	≤ 0.125	4 (≈ 13.7 µM)	0.25 (≈ 0.858 µM)	16 (≈ 54.9 µM)	≤ 0.125	4 (≈ 13.7 µM)
